This passage reports viability, T/C and IC50 results from PubChem BioAssay AID2060599 (Molecular Pharmacology Branch, DTP, NCI, 2025).

pIC50: −log10 of the molar value. Several values for one entry are separate records, joined by “and”; a condition that tells them apart may be missing. Equal entries are not always repeated.

This assay has as its system 817829-284-R-J1-PDC complex spheroids, viability. Briefly: Anticancer human tumor 817829-284-R-J1-PDC patient-derived colon adenocarcinoma cell line growth inhibition [CLK]. Conditions: for viability, T/C: stronger effect = lower value. The method, boiled down:
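Multi-cell-type spheroids combined patient-derived tumor cells with HUVEC endothelial cells and human mesenchymal stem cells. Paired agents were dosed in half-log steps down from about clinical Cmax, or from 10 microM where Cmax was unknown.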
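Further: spheroids exposed to the agents for seven days before readout.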

In the case of `C=CC(=O)N1CCN(c2nc(=O)n(-c3c(C)ccnc3C(C)C)c3nc(-c4c(O)cccc4F)c(F)cc23)C(C)C1` (configuration not stated), the viability, T/C (in general, the ratio of treated to control) (compound 0.0316 µM) is 101% and 136%; the viability, T/C (compound 0.1 µM) is 97.2% and 101%; the viability, T/C (compound 0.316 µM) was 101% and 92.9%; the viability, T/C (compound 1 µM) is 100%; the viability, T/C (compound 3.16 µM) is 101%; the viability, T/C (compound 10 µM) was 57% and 87.9%. Besides, for the setting “curve of compound”, the pIC50 (in general, the negative decadic logarithm of the IC50, by convention in mol/L) was below 5.00.
